According to patent US20240057600A1, “METHODS FOR CONTROLLING OR PREVENTING INFESTATION OF PLANTS BY A PHYTOPATHOGENIC MICROORGANISM OF THE GENUS ASPERGILLUS” (priority 2020, published 2024):
Values after ≈ are worked out from the molar mass of the structure shown. Read-outs that look alike come from different tables or passages of the source.

How the values were obtained:
[1] = tested on: Aspergillus flavus isolates; assay: In vitro mycelial growth inhibition assay on amended agar; format: cell-based; conditions: 120 h, 5 days incubation, 22 C
Experimental: (§1) The sensitivity to cyclobutrifluram of 104 isolates of Aspergillus niger and 31 isolates of Aspergillus flavus was determined under in vitro lab conditions using a mycelial growth inhibition assay. Isolates of Aspergillus niger were retrieved from infected seeds or infected plants with clear symptoms of crown rot disease. Isolates of Aspergillus flavus were collected from infected seeds. The sensitivity to azoxystrobin of the isolates was determined under in vitro conditions using a conidial germination inhibition assay. Sensitivity tests were conducted in vitro using agar medium amended with cyclobutrifluram or azoxystrobin at the following concentrations: 0, 0.001, 0.01, 0.1, 1, and 10 mg a.i./L. The plates were incubated at room temperature (22 C). The mycelial growth of the colonies growing on plates amended or not with cyclobutrifluram was determined after 5 days of incubation. The conidial germination on agar plates amended or not with azoxystrobin was determined after 18 hours of incubation. A conidium was rated as germinated, if a normally developing germ tube had at least the length of a conidium. […] Effective dose values (EC50) are expressed in mg of cyclobutrifluram or azoxystrobin active ingredient/L. [table] [table]

[2] = tested on: Aspergillus niger isolates; assay: as above; format: cell-based; conditions: 120 h, 5 days incubation, 22 C
Experimental: as §1

[3] = tested on: Aspergillus niger; assay: Peanut field trial, seed treatment, pest incidence 42 days after planting; format: in vivo, Aspergillus niger on Arachis hypogaea (peanut)
Experimental: A peanut field trial was carried out on May 11, 2020 in Malpur, Gujarat, India, to evaluate the efficacy of different compounds against Aspergillus sp. fungi. The disease symptoms started to occur 4 weeks after planting and an assessment on disease incidence (% infected plants) was done 42 days after planting.
Pest Incidence, 42 Days after Planting

[4] = tested on: Aspergillus flavus isolates; assay: In vitro conidial germination inhibition assay on amended agar; format: cell-based; conditions: 31 A. flavus isolates, 18 hours incubation; for EC50 values, maximum: highest concentration used 10 mg a.i./L
Experimental: as §1

[5] = tested on: Aspergillus niger isolates; assay: as above; format: cell-based; conditions: 104 A. niger isolates, 18 hours incubation; for EC50 values, minimum: 22 C; for EC50 values, maximum: highest concentration used 10 mg a.i./L
Experimental: as §1

| Structure (SMILES) | EC50 ([1]; 31 A. flavus isolates from infected peanut seeds, read-out: EC50 values, mean (geometric mean)) | EC50 ([1]; 31 A. flavus isolates, read-out: EC50 values, maximum) | EC50 ([1]; 31 A. flavus isolates, read-out: EC50 values, minimum) | EC50 ([2]; 104 A. niger isolates from infected peanut seeds or plants, read-out: EC50 values, mean (geometric mean)) | EC50 ([2]; 104 A. niger isolates, read-out: EC50 values, maximum) | EC50 ([2]; 104 A. niger isolates, read-out: EC50 values, minimum) | Pest incidence (LS Means) ([3]; peanut GG 20, field trial Malpur, Gujarat, India, seed treatment, 42 days after planting, rates g AI/100 kg: VITAVAX 225, cyclobutrifluram 60, VIBRANCE MAXX 150, EVERGOL XTEND 30.8) | % efficacy based on disease incidence ([3]; peanut GG 20, field trial, seed treatment, 42 days after planting, rates g AI/100 kg: VITAVAX 225, cyclobutrifluram 60, VIBRANCE MAXX 150, EVERGOL XTEND 30.8) | Aspergillus niger pest incidence compared to the untreated and standard treatments ([3]; treatment 3, 60 g AI/100 kg seed treatment, 42 days after application) | EC50 values, minimum ([4]; 22 C) | EC50 values, maximum [4] | EC50 values, maximum ([4]; listed as azoxystrobin) | EC50 values, minimum [5] | EC50 values, minimum ([5]; listed as azoxystrobin) | EC50 values, maximum [5] | EC50 values, maximum ([5]; listed as azoxystrobin) |
| --- | --- | --- | --- | --- | --- | --- | --- | --- | --- | --- | --- | --- | --- | --- | --- | --- |
| O=C(N[C@@H]1CC[C@@H]1c1ccc(Cl)cc1Cl)c1cccnc1C(F)(F)F (racemic) [Cyclobutrifluram, cyclobutrifluram] | 0.108 µg/mL (≈ 0.277 µM) | 0.7 µg/mL (≈ 1.8 µM) | 0.0262 µg/mL (≈ 0.0673 µM) | 0.082 µg/mL (≈ 0.211 µM) | 0.703 µg/mL (≈ 1.81 µM) | 0.00924 µg/mL (≈ 0.0238 µM) | 0.42, % infected plants | 97.03% | significantly lower | – | – | – | – | – | – | – |
| CO/C=C(/C(=O)OC)c1ccccc1Oc1cc(Oc2ccccc2C#N)ncn1 [Azoxystrobin, azoxystrobin] | – | – | – | – | – | – | – | – | – | 0.003457 mg · ai/L | >10 mg · ai/L | more than 10 mg · ai/L | <0.001 mg · ai/L | 0.000793 mg · ai/L | >10 mg · ai/L | more than 10 mg · ai/L |
